Measurements reported in patent US7659277B2, “Ubiquitin ligase inhibitors and methods related thereto” (Proteologies, Ltd., priority 2003, dated 2010).
Where two headings read alike, the source gives them in different places.

Assays:
POSH = target: T1, POSH (Homo sapiens, UniProt Q7Z6J0); experiment: IC50 assay procedure: GST-POSH auto-ubiquitination, homogeneous time-resolved fluorescence (Ub-cryptate / anti-GST XL665); type: biochemical; conditions: ubiquitin ligase activity of POSH; GST-POSH 33 nM, 30 min preincubation
T1 construct: GST-POSH lot NB81/p.118 3.6 mg/ml; fused on or other part: GST tag, used for detection with anti-GST XL665
T1 sequence (Q7Z6J0 1-269 limits assumed): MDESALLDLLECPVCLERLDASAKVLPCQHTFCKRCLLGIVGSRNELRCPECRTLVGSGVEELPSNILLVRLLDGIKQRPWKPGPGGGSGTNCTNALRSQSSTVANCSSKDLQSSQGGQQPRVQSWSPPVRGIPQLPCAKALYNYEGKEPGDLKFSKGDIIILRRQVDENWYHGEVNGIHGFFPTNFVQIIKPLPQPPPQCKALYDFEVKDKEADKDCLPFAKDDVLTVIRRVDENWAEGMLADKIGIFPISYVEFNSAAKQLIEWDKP
From the text: In certain preferred embodiments, agents that inhibit (or promote) the ubiquitin ligase activity of a ubiquitin ligase, such as POSH, may be identified using a homogenous time resolved fluorescence assay. Such an assay may employ a GST fused to the RING subunit of a ubiquitin ligase (e.g. POSH). Two flurophore-conjugated detection reagents are also used: anti-GSTXL665 and europium cryptate labeled ubiqutin. The ubiqutination of the ubiquitin ligase by ubiqutin cryptate and binding of the anti-GST tagged XL665 brings the fluorophores into close proximity allowing FRET reaction to occur. Accordingly, FRET serves as a measurement of ubiquitination of the ubiquitin ligase. An enzymatic system may be set up to provide activated ubiquitin, e.g., by providing ubiquitin, an E1 and an E2. Compounds that will not allow the FRET reaction are considered to be inhibitors.
Step 3: establish IC 50 value measurements.
Experimental Protocols: 1. HTS Screening Assay Procedure • Microplates 10109D to 10114D compounds at 1 mM. • (Controls in column 1). • All compounds were perchase from ChemBridge corporation: ChemBridge corporation 16981 Via Tazon, Suite G San Diego, Calif. 92127 a. Microplates Labeling • Put labels to 6 PS U-bottom clear microplate. • Put labels to 18 black microplates (triplicats). b. Microplates Preparation • Put 100 μl GST-POSH at 33 nM in wells of the clear PS U-bottom microplates (exept wells A1-D1). • Negative control: place 100 μl dH2O in wells A1-D1. • (Positive control: place 100 μl GST-POSH at 33 nM in wells E1-H1). • Put 8 μl enzymes solution ×4 to black microplates (column 1 to 11). c. Incubation of E3 with Compounds • Transfer 5 μl of compounds (at 1 mM) to the microplates containing 100 μl GST-POSH. • Add 5 μl of DMSO to controls column 1. • Incubation 30 minutes at RT. d. Enzymatic (Ubiquitination) and Final Steps • Distribution of (triplicate) 3×23 μl incubated compounds into 3 black microplates containing enzymatic solution (on splitting apparatus). • Incubation 30 minutes at 37° C. • Addition of 8 μl EDTA 0.5 M. • Incubation 15 (at least) minutes at RT. • Addition of 30 μl GST XL 665 in reconstitution buffer. • Incubation 45 (at least) minutes at RT. • Reading fluorescence. • Record results in computer. • Put sealing foil back on original and diluted microplates and keep at −70° C. • Always the plates must be closed with lids during each step. 2. […] Microplates Labeling • Put labels to 4 clear PP clear microplate (18.2 μM, 9.1 uM, 1.82 uM, 910 nM,). • Put labels to 5 clear PS U-bottom clear microplate 4.44 μM, 909, 444, 91 and 44 nM) • Put labels to 15 black microplates (triplicates). f. Original Microplate Dilutions • Put DMSO 40 μl to (18.2 μM, 1.82 uM plates) and 20 ul to (9.1 uM, 910 nM plates. • Mix by pipetation the original microplate (3× up and down 45 μl). • Transfer 10 μl of compounds from the original microplate (at 91 μM) to the next microplate (=18.2 μM) on splitting apparatus. • Mix by pipetation the 18.2 uM microplate (3× up and down 45 μl). • Transfer 20 μl of compounds from the 18.2 uM microplate to the next microplate (=9.1 μM) on splitting apparatus. • Mix by pipetation the 9.1 uM microplate (3× up and down 45 μl). • Transfer 10 μl of compounds from the 9.1 uM microplate to the next microplate (=1.82 μM) on splitting apparatus. • Mix by pipetation the 1.82 uM microplate (3× up and down 45 μl). • Transfer 20 μl of compounds from the 1.82 uM microplate to the next microplate (=910 nM) on splitting apparatus • Mix by pipetation. g. Microplates Preparation • Put 123 μl GST-POSH at 33 nM in wells of the 5 clear PS U-bottom clear microplates. • Positive control: place 123 μl GST-POSH at 33 nM in well A12-h12 13 μl DMSO. • Negative control: place 123 μl dH2O in well B1 and 13 μl DMSO. • Put 8 μl enzymes solution ×4 to 15 black microplates. • Controls: put 8 μl enzymes solution ×4 to wells A1 to F1. h. […]

Hmdm2 = Hmdm2 (Homo sapiens, UniProt Q00987); experiment: Selectivity (% A in 1 μM), ubiquitin ligase activity of Hmdm2; type: biochemical; conditions: read-out: Selectivity (% A* in 1 μM) Hmdm2
[1] = % activity at 1 μM compound, control is related to 100% activity, HTS protocol

Sequence of Hmdm2 (Q00987 whole entry): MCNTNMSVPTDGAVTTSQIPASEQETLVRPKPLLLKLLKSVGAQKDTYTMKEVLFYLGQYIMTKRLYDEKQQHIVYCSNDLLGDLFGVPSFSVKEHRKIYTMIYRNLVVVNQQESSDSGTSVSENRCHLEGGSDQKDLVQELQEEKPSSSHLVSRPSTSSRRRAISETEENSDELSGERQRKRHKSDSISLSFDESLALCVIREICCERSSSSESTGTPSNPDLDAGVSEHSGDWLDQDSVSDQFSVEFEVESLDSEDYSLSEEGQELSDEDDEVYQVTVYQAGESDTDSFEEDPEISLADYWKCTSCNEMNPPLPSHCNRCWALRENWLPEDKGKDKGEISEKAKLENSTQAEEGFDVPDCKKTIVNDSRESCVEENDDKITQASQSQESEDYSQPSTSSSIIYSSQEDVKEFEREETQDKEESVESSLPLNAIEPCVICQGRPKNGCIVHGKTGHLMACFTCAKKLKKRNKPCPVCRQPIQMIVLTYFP

| Structure (SMILES) | IC50 (POSH) [nM] | remaining activity at 1 µM (Hmdm2) [%] | remaining activity at 1 µM (Hmdm2; [1]) [%] |
| --- | --- | --- | --- |
| CN1C(=O)/C(=C\c2ccc(-c3cccc([N+](=O)[O-])c3)o2)SC1=S [Compound 115] | 600 | 108 | – |
| O=c1/c(=C/c2cccc([N+](=O)[O-])c2O)sc2nc3ccccc3n12 [Compound 51] | 700 | – | 80 |
| COc1cc(N/C=C2/C(=O)NC(=S)N(c3cccc(C)c3)C2=O)cc(OC)c1 [Compound 16] | 1000 | – | 86 |
| Cc1ccc(/N=C/c2cccc(O)c2O)cc1C [Compound 56] | 300 | 73 | – |
| COc1cc(/C=C2\SC(=O)NC2=O)ccc1OCc1ccc(Cl)cc1Cl [Compound 34] | 1000 | – | 123 |
| CCOC(=O)c1c(/N=C/c2cc(Br)ccc2O)sc2c1CCCC2 [Compound 68] | 1000 | – | 110 |
| O=[N+]([O-])c1ccc2c(c1)Cc1cc(/N=C/c3ccc(Br)cc3)ccc1-2 [Compound 67] | 1000 | – | 104 |
| O=C1N=C(c2ccccc2)S/C1=C/c1ccc(-c2cccc([N+](=O)[O-])c2)o1 [Compound 36] | 1000 | – | 71 |
| COc1ccc(NC(=O)c2cc3cccc(N)c3cc2O)cc1 [Compound 114] | 300 | 85 | – |
| COc1ccc(N2C(=O)NC(=O)/C(=C\c3ccc(Cl)cc3)C2=O)cc1 [Compound 7] | 1000 | – | 101 |
| COc1ccc(/C=N/c2ccc(Nc3ccccc3)cc2)c2ccccc12 [Compound 55] | 500 | 58 | – |
| O=C1C(=Cc2ccc(-c3ccc(Br)cc3)o2)C(=O)c2ccccc21 [Compound 38] | 400 | 111 | – |
| COc1cc(C=C2C(=O)N(C)C(=S)N(C)C2=O)ccc1O [Compound 9] | 10000 | – | 103 |
| Oc1ccc(/N=C/c2cccs2)cc1-c1nc2ccccc2s1 [Compound 71] | 800 | – | 78 |
| COC(=O)c1ccc(N2C(=O)c3cccc(N)c3C2=O)cc1 [Compound 21] | 800 | – | 80 |
| N/N=C\c1ccc(-c2cccs2)s1 [Compound 37] | 1000 | – | 107 |
| COc1ccc(CNc2cccc(N(C)C)c2)cc1 [Compound 106] | 900 | – | 80 |

| Structure (SMILES) | IC50 (POSH) [nM] | remaining activity at 1 µM (Hmdm2) [%] | remaining activity at 1 µM (Hmdm2; [1]) [%] |
| --- | --- | --- | --- |
| O=C1C(=Cc2ccco2)C(=O)N(c2ccccc2)C(=S)N1c1ccccc1 [Compound 13] | 1000 | – | 11 |
| O=C1C=CC(=O)N1c1ccc(Cl)cc1 [Compound 19] | 700 | 100 | – |
| O=C1/C(=C\c2cccc([N+](=O)[O-])c2)Sc2ccccc21 [Compound 52] | 1300 | – | 107 |
| CC(C)(C)c1ccc(O)c(/N=C/C=C/c2cccc([N+](=O)[O-])c2)c1 [Compound 59] | 500 | 112 | – |
| Oc1c(Br)cc(Br)cc1/C=N/c1ccc(Br)cn1 [Compound 61] | 700 | – | 131 |
| CC(C)Oc1ccc(/C=C2/SC(=S)NC2=O)cc1 [Compound 26] | 3000 | – | 98 |
| Oc1c(Br)cc(Br)cc1/C=N/c1nc2ccccc2s1 [Compound 62] | 700 | – | 120 |
| Cc1ccc(/C=N/c2ccc(Cl)cc2)o1 [Compound 74] | 1000 | – | 107 |
| N=C1NC(=O)/C(=C\c2ccc(-c3ccc(I)cc3)o2)S1 [Compound 29] | 700 | 104 | – |
| C=CCN1C(=O)/C(=C/c2c3ccccc3cc3ccccc23)SC1=S [Compound 109] | 500 | 106 | – |
| O=[N+]([O-])c1ccc(CN2CCN(c3cccc(Cl)c3)CC2)o1 [Compound 80] | 500 | 95 | – |
| O=C(O)c1ccc(-c2ccc(/C=c3\sc4nc5ccccc5n4c3=O)o2)cc1 [Compound 28] | 700 | 90 | – |
| Cc1c(C(=O)/C=C/c2ccccc2)c2cc(O)ccc2n1C [Compound 75] | 400 | 113 | – |
| Oc1c(Cl)cc(Cl)cc1/C=N/c1ccc(-c2nc3ccccc3[nH]2)cc1 [Compound 63] | 600 | – | 102 |
| CCCCOc1ccc(NC(=S)N2CCn3c4c(c(=O)c5cc(C)ccc53)CCC42)cc1 (centres unmarked) [Compound 81] | 100 | 73 | – |
| O=c1oc2cc(O)ccc2cc1-c1csc(-c2ccc(Cl)cc2)n1 [Compound 40] | 1000 | – | 159 |
| O=C1C=CC(=O)N1c1ccc(OC(F)(F)C(F)F)c(N2C(=O)C=CC2=O)c1 [Compound 20] | 900 | 132 | – |
